Legend:
4T1 luciferase cells = format: in vivo; details: MYD1-72 Fc 1 mg/kg daily, TKIs 12.5 mg/kg twice daily; for reduction in lung metastases compared to vehicle treated mice: ex vivo bioluminescent imaging; for size of primary tumors: three weeks, vs control
Description: In this model, cells orthotopically implanted in the mammary fat pad generate primary masses that metastasize to the lungs.
Comparison of MYD1-72 Fc with clinical Axl. TKIs There are currently no FDA approved drugs targeting Axl, though several small molecule kinase inhibitors are undergoing clinical trials. BerGenBio's BGB324 (previously Rigel's R428) is the most advanced of these compounds, and the first to be developed prospectively as an Axl inhibitor. […] Furthermore, since TKI's and biologics are fundamentally very different, as are their mechanisms of action, a direct comparison would provide valuable insights into the potential of distinct therapeutic intervention strategies. […] Cells were implanted orthotopically in the mammary fat pad, and primary tumors were allowed to establish prior to treatment. […] This dose for the TKIs was chosen as significant activity has been previously reported at equivalent concentrations.
(§1) Treatment was initiated four days post-surgery.

[1] = system: phosphorylation of Axl, Mer, Tyro3, and downstream Akt signaling in OVCAR8 cells; experiment: Western blot of TAM receptor and Akt phosphorylation in OVCAR8 cells; format: cell-based, human
Description: (§2) Cell lysates subjected to sodium dodecyl sulfate polyacrylamide gel electrophoresis followed by transfer to nitrocellulose membrane. The membranes were then probed with primary antibodies against total Axl (AF154, R&D Systems, INC., Minneapolis, Minn.), phospho-Axl (T702; #5724, CST, Danvers, Mass.), total Akt (#4691 CST, Danvers, Mass.), phosphor-Akt (#4060, CST, Danvers, Mass.), anti-MERTK (#ab52968, Abcam, Cambridge, Mass.), phospho-MERTK (#ab14921 Abcam, Cambridge, Mass.), anti-Tyro3 (#5585, CST, Danvers, Mass.), phospho-Tyro3 (#orb186274, Biorbyt LLC, Berkely, Calif.), Bcl-2 Family Antibody Sampler Kit (#9934, CST, Danvers, Mass.), anti-Chk2 (#sc-5278, Santa Cruz Biotech, INC., Santa Cruz, Calif.), anti-XRCC1 (#2735, CST, Danvers, Mass.), anti-γH2AX (Merck Millipore #05636, Darmstadt, Germany), anti-phospho-ATM (#ab81292, Abcam, Cambridge, Mass.), anti-ATM (#ab78, Abcam, Cambridge, Mass.), anti phospho-ATR (#2853, CST, Danvers, Mass.), anti-ATR (#2790, CST, Danvers, Mass.), anti-Phospho Chk1 (#12302, CST, Danvers, Mass.), anti-Phospho Chk2 (#2197, CST, Danvers, Mass.) and anti-RPA32 (#2208, CST, Danvers, Mass.) at 4° C. overnight. The blots were then washed and probed with HRP conjugated anti-goat (#sc-2020, Santa Cruz Biotech, INC., Santa Cruz, Calif.), or HRP conjugated anti-rabbit (#A16110, Thermo Fisher Scientific, Walthan, Mass.) as appropriate. The blots were developed with Bio-Rad Western C developing reagent (#170-5060 Bio-Rad, Hercules, Calif.) and visualized with Chemidoc digital imager (#1708280, Bio-Rad, Hercules, Calif.).

patients = details: recent phase II trial; cited from earlier work
[2] = system: LM-P orthotopic pancreatic cancer; experiment: LM-P orthotopic pancreatic cancer model; details: immunohistochemistry
Description: LMP cells derived from the KRAS/p53 metastatic mouse model were implanted subcutaneously into the flanks of mice and allowed to grow until they reached ˜500 mm^3 in size.
To establish orthotopic tumors, mice harboring subcutaneous tumors were sacrificed and tumors were isolated and cut into small fragments. Laparotomies were then performed and a tumor fragment was secured to the tail of the pancreas.
All procedures involving animals and their care and use were approved by the Institutional Animal Care and Usage Committee of Stanford University. For all in vivo studies, six week old, female nude (nu/nu) mice (Jackson Laboratory, Bar Harbor, Me.) were used. In all studies, animals displaying signs of morbidity were removed from the study immediately. […] Treatment was initiated four days post-inoculation for both studies. […] BGB324 (Selleckchem LLC, Houston, Tex.) and Foretinib (MedChem, Monmouth Junction, N.J.). Small molecules were administered twice daily via oral gavage. […] The orthotropic LM-P pancreatic adenocarcinoma model (a gift from Dr. Edgar Engleman at Stanford University, Stanford, Calif.) was established as previously described. Briefly, 1×10^6 cells were injected subcutaneously into the flanks of nude mice and grown for 2-3 weeks until they reached 500 mm^3. […]

skov3.ip = skov3.ip intraperitoneal ovarian cancer model; format: in vivo, mouse xenograft; details: MYD1-72 Fc 1 mg/kg daily, doxorubicin 2 mg/kg twice weekly, three weeks
Description: At this time, several mice were sacrificed at random to ensure engraftment of diffuse metastatic disease, a hallmark of the human condition. […] After three weeks of treatment, mice were sacrificed and tumor burden was quantified both by counting the number of visible lesions, as well as excising and weighing all diseased tissue.
as §1

[3] = system: Axl and FLT3 phosphorylation in AML cells; experiment: Western blot of Axl and FLT3 phosphorylation in AML cells; format: cell-based, human
Description: as §2

mouse Gas6 = target: T1, mouse Gas6 (mouse, UniProt Q61592 115-674, limits assumed); experiment: KinExA equilibrium titration in solution, apparent Kd of the dimeric Fc fusion
T1 construct: Recombinant in KinExA (detected through a 6xHIS tag); also called mGas6
T1 sequence (looked up): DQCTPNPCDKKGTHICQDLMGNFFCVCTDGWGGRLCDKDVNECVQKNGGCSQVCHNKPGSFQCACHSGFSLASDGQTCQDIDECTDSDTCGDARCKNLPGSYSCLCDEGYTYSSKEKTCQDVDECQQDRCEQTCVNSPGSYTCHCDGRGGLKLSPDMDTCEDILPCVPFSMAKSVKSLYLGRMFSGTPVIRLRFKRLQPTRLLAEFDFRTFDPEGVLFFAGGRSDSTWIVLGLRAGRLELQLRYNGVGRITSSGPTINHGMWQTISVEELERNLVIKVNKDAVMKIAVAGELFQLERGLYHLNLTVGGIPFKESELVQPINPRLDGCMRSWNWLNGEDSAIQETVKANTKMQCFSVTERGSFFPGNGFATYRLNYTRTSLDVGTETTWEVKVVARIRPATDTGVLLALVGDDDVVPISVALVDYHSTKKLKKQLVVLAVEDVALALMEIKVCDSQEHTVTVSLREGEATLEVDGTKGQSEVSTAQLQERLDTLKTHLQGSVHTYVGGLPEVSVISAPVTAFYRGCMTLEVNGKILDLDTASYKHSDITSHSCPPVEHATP

Which results are given for `Nc1nc(Nc2ccc3c(c2)CC[C@@H](N2CCCC2)CC3)nn1-c1cc2c(nn1)-c1ccccc1CCC2` [BGB324, reference compound]?
reduction in lung metastases compared to vehicle treated mice (4T1 luciferase cells): 10%; size of primary tumors (4T1 luciferase cells): showed little effects; pAxl and pAkt levels [1]: short-term inhibition of pAxl but increased pAxl levels at later time points

Which “reduction in lung metastases compared to vehicle treated mice” value (4T1 luciferase cells) does the source give for `COc1cc2c(Oc3ccc(NC(=O)C4(C(=O)Nc5ccc(F)cc5)CC4)cc3F)ccnc2cc1OCCCN1CCOCC1` [Foretinib] here?
Its value is 55%.

What about the “size of primary tumors” value (4T1 luciferase cells) of the same molecule?
The value was “significantly reduced the size of primary tumors”.

What about the “pAxl and pAkt levels” value [1] of the same molecule?
The value was “indiscriminately inhibited all TAM receptors”.

What about the “pMer and pTyro3 levels” value [1] of the same molecule?
The value was “indiscriminately inhibited all TAM receptors”.

What about the clinical efficacy (patients) of the same molecule?
Its clinical efficacy is “failed to demonstrate efficacy”.

And the “patients with treatment-related adverse events” value (patients)?
Its value is 91%.

For `Nc1ccn([C@@H]2O[C@H](CO)[C@@H](O)C2(F)F)c(=O)n1` [Gemcitabine, reference compound], which “Ki67 proliferation in primary tumor” value [2] is on record?
The value was “small, albeit significant decrease in proliferation”.

Which “decrease in tumor burden (by weight) vs controls” value (skov3.ip) does the source give for `COc1cccc2c1C(=O)c1c(O)c3c(c(O)c1C2=O)C[C@@](O)(C(=O)CO)C[C@@H]3O[C@H]1C[C@H](N)[C@H](O)[C@H](C)O1` [doxorubicin, reference compound] here?
Its value is 91%.

Which “Axl and FLT3 phosphorylation” value [3] does the source give for “wildtype Axl Fc: wild-type Axl decoy receptor as Fc fusion” here?
Its value is “inhibited Axl and FLT3 phosphorylation”.

B1: MYD1-Fc (Fc fusion)
chain: APRGTQAEESPFVSNPGNITGARGLTGTLRCQLQVQGEPPEVHWLRDGQILELADSTQTQVPLGEDEQGDWIVASQLRITSLQLSDTGQYQCLVFLGHQTFVSQPGYVRLEGLPYFLEEPEDRTVAANTPFNLSCQAQGPPEPVDLLWLQDAVPLATAPGHGPQRSLHVPGLNKTSSFSCEAHNAKGVTTSRTATITVLPQQPRNLHLVSRQPTELEVAWTPGLSGIYPLTHCTLQAVLSNDGMGIQAGEPDPPEEPLTSQASVPPHQLRLGSLHPHTPYHIRVACTSSQGPSSWTHWLPVETPEGVPLGPPENISATRNGSQAFVHWQEPRAPLQGTLLGYRLAYQGQDTPEVLMDIGLRQEVTLELQGDGSVSNLTVCVAAYTAAGDGPWSLPVPLEAWRPGQAQPVHQLVKEPSTPAFS
notes: Dimeric Fc fusion made in HEK293; MYD1 mutations deduced as MYD1-72 minus A72V; not shown: Fc domain
With B1 as the molecule, how does the Kd (mouse Gas6) read?
The Kd was 1.1 pM.

B2: MYD1-72 Fc (Fc fusion)
chain: APRGTQAEESPFVSNPGNITGARGLTGTLRCQLQVQGEPPEVHWLRDGQILELVDSTQTQVPLGEDEQGDWIVASQLRITSLQLSDTGQYQCLVFLGHQTFVSQPGYVRLEGLPYFLEEPEDRTVAANTPFNLSCQAQGPPEPVDLLWLQDAVPLATAPGHGPQRSLHVPGLNKTSSFSCEAHNAKGVTTSRTATITVLPQQPRNLHLVSRQPTELEVAWTPGLSGIYPLTHCTLQAVLSNDGMGIQAGEPDPPEEPLTSQASVPPHQLRLGSLHPHTPYHIRVACTSSQGPSSWTHWLPVETPEGVPLGPPENISATRNGSQAFVHWQEPRAPLQGTLLGYRLAYQGQDTPEVLMDIGLRQEVTLELQGDGSVSNLTVCVAAYTAAGDGPWSLPVPLEAWRPGQAQPVHQLVKEPSTPAFS
notes: Dimeric Fc fusion made in HEK293; also called MYD-72 Fc; second generation Axl decoy receptor; not shown: Fc domain
For B2, which Kd (mouse Gas6) is on record?
The Kd was 0.14 pM.
